Drawing on ChEMBL document CHEMBL1138756, “Entry into a new class of potent proteasome inhibitors having high antiproliferative activity by structure-based design” (J Med Chem, 2004), this text covers IC50 for 5 compounds.

Assay [1] relates to Proteasome. The assay is described as follows: Inhibition of trypsin-like proteolytic activity of purified human proteasome. Type of assay: subcellular.
Assay [2] deals with Proteasome. Description: Inhibition of post glutamyl l-peptide (PGPH) proteolytic activity of purified human proteasome.
Assay [3] has as its system MDA-MB-435. Description: Inhibition of MDA-MB 435 cell proliferation. Type of assay: functional, cell-based. To be noted: Homo sapiens.
Assay [4] relates to Proteasome. Description: Inhibition of chymotrypsin-like proteolytic activity of purified human proteasome in cultured MDA-MB 435 Cells. Type of assay: subcellular.
The test system of assay [5] is Proteasome. The assay is described as follows: Inhibition of chymotrypsin-like proteolytic activity of purified human proteasome. The format is subcellular.

For orientation: IC50 means the concentration at which inhibition is half-maximal. `COc1ccc(CNC(=O)[C@@H](NC(=O)[C@H](Cc2cc(OC)c(OC)c(OC)c2)NC(=O)Cc2cccc(Oc3ccccc3)c2)C(C)C)c(O)c1`: the IC50 is > 20000 nM in assay [1]; > 20000 nM in assay [2]; 60 nM in assay [3]; 20 nM in assay [4]; 10 nM in assay [5].

Take `COc1ccc(CNC(=O)[C@@H](NC(=O)[C@H](Cc2ccc(OC)c(OC)c2)NC(=O)Cc2ccccc2)C(C)C)c(O)c1`: the IC50 in assay [5] turned out to be 1000 nM.

With `COc1ccc(CNC(=O)[C@@H](NC(=O)[C@H](Cc2ccc(OC)c(OC)c2)NC(=O)Cc2cccc(Oc3ccccc3)c2)C(C)C)c(O)c1`, the IC50 in assay [1] was > 20000 nM; in assay [2], > 20000 nM; in assay [3] it was 900 nM; in assay [5], 60 nM.

Regarding `COc1ccc(CN[C@@H](C(=O)N[C@H](C(=O)NCc2ccc(OC)cc2O)C(C)C)[C@H](O)[C@H](Cc2ccccc2)NC(=O)[C@@H](NC(=O)OCc2ccccc2)C(C)(C)C)cc1`, the IC50 was > 20000 nM in assay [1], > 20000 nM in assay [2] and 900 nM in assay [5].

For `COc1ccc(CNC(=O)[C@@H](NC(=O)[C@H](NCc2cc(OC)c(OC)c(OC)c2)[C@H](O)[C@H](Cc2ccccc2)NC(=O)[C@@H](NC(=O)Cc2cccc3ccccc23)C(C)(C)C)C(C)C)c(O)c1`, the IC50 was > 20000 nM in assay [1], > 20000 nM in assay [2], 1500 nM in assay [3] and 7 nM in assay [5].
